Data on 21 molecules can be found in ChEMBL document CHEMBL6083227, “Novel sulfonamides unveiled as potent anti-lung cancer agents via tumor pyruvate kinase M2 activation” (RSC Med Chem, 2024).

In assay [1] the test system is A549. Description: Antiproliferative activity against human A549 cells incubated for 48 hrs by Alamar blue staining based assay. The settings on record: A549, 48 h. (The colour change of resazurin is a common sign of viable cells or microbes.)
The subject of assay [2] is BEAS-2B. The experiment in a line: Antiproliferative activity against human BEAS-2B cells incubated for 48 hrs by Alamar blue staining based assay.
Assay [3] deals with Pyruvate kinase PKM (Homo sapiens, UniProt P14618). The experiment in a line: Activation of recombinant human PKM2 using pyruvate as substrate measured for 20 mins in presence of beta-NADH by LDH-coupled assay.
Chain of Pyruvate kinase PKM (P14618 whole entry): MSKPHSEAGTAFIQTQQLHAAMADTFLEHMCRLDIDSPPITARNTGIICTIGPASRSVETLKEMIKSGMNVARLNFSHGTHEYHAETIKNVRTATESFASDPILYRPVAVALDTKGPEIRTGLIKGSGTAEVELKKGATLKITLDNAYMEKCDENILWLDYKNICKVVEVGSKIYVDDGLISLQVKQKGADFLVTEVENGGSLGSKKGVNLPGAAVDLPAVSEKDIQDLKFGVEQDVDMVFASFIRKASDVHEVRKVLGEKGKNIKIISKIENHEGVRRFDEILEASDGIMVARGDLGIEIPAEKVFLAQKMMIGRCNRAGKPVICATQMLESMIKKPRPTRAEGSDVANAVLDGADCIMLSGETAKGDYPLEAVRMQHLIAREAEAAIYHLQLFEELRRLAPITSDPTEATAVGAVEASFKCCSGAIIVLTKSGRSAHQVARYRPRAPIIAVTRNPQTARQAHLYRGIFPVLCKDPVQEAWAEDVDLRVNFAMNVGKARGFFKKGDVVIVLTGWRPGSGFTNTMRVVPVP

One may read the IC50 as the concentration needed to halve the response being measured. Read a high IC50 as weaker potency in that assay. By EC50 is commonly meant the concentration that produces a half-maximal response. As for `COc1ccc(-c2ccc(S(=O)(=O)N3CCN(CC(=O)c4cnc5ncccn45)CC3)cc2)cc1`, the IC50 in assay [1] amounted to 1600 nM; in assay [2], 9130 nM. Further, the EC50 in assay [3] was 435 nM.

In the case of `O=C(CN1CCN(S(=O)(=O)c2ccc(F)cc2)CC1)c1cnc2ccccn12`, the results for the IC50 in assay [1] and in assay [2] were 1680 nM and 52200 nM, respectively. In assay [3], the EC50 came out at 382 nM.

Take `O=C(CN1CCN(S(=O)(=O)c2cccc(Br)c2)CC1)c1cnc2ccccn12`: the figures for the IC50 in assay [1] and in assay [2] were 1670 nM and 39900 nM, respectively. Also, in assay [3], the EC50 was determined as 606 nM.

On to `COc1cccc2c1C(=O)c1c(O)c3c(c(O)c1C2=O)C[C@@](O)(C(=O)CO)C[C@@H]3O[C@H]1C[C@H](N)[C@H](O)[C@H](C)O1` [DOXORUBICIN], for which the IC50 was 1640 nM in assay [1] and 24700 nM in assay [2].

Regarding `O=C(CN1CCN(S(=O)(=O)c2ccc(C(F)(F)F)cc2)CC1)c1cnc2ccccn12`, the IC50 in assay [1] came out at 1300 nM; in assay [2], 61400 nM. Further, the EC50 in assay [3] turned out to be 550 nM.

On to `O=C(CN1CCN(S(=O)(=O)c2cc(F)ccc2F)CC1)c1cnc2ncccn12`, for which the figures for the concentration for half-maximal inhibition (IC50) in assay [1] and in assay [2] were 1260 nM and 26500 nM, respectively. Besides, the EC50 in assay [3] was determined as 648 nM.

As to `O=C(CN1CCN(S(=O)(=O)C2CCCCC2)CC1)c1cnc2ccccn12`, the IC50 was determined as 1650 nM in assay [1] and 60600 nM in assay [2]. The half-maximal effective concentration (EC50) in assay [3] came to 889 nM.

As for `N#Cc1ccccc1S(=O)(=O)N1CCN(CC(=O)c2cnc3ccccn23)CC1`, the results for the IC50 in assay [1] and in assay [2] were 1510 nM and 55700 nM, respectively. Further, the EC50 in assay [3] worked out at 147 nM.

`O=C(CN1CCN(S(=O)(=O)c2ccc(F)cc2Cl)CC1)c1cnc2ccccn12`: the half-inhibitory concentration (IC50) in assay [1] worked out at 950 nM; in assay [2] it was 37800 nM. Also, the EC50 in assay [3] was 205 nM.

Take `O=C(CN1CCN(S(=O)(=O)c2cccc(Br)c2)CC1)c1cnc2ncccn12`: the IC50 stood at 1140 nM in assay [1] and 39000 nM in assay [2]. In addition, in assay [3], the EC50 amounted to 634 nM.

As for `Nc1cccc(S(=O)(=O)N2CCCN(S(=O)(=O)c3ccc4c(c3)OCCO4)CC2)c1`, the 50% inhibitory concentration (IC50) in assay [1] was 1460 nM; in assay [2], 35200 nM.

As to `O=C(CN1CCN(S(=O)(=O)C2CC2)CC1)c1cnc2ncccn12`, the IC50 in assay [1] came to 1760 nM; in assay [2], 53400 nM. Besides, in assay [3], the EC50 amounted to 92 nM.

Consider `O=C(CN1CCN(S(=O)(=O)c2ccc(C(F)(F)F)cc2)CC1)c1cnc2ncccn12`, for which the values for the IC50 in assay [1] and in assay [2] were 1230 nM and 15900 nM, respectively. Moreover, the concentration for a half-maximal effect (EC50) in assay [3] was determined as 211 nM.

In the case of `O=C(CN1CCN(S(=O)(=O)c2cccs2)CC1)c1cnc2ccccn12`, the IC50 in assay [1] amounted to 1140 nM; in assay [2], 30500 nM. In assay [3], the EC50 was found to be 134 nM.

With `O=C(CN1CCN(S(=O)(=O)c2ccc(F)cc2Cl)CC1)c1cnc2ncccn12`, the IC50 was 1720 nM in assay [1] and 16800 nM in assay [2]. Further, the EC50 in assay [3] was found to be 612 nM.

`Cc1cc(C)c(S(=O)(=O)N2CCN(CC(=O)c3cnc4ccccn34)CC2)c(C)c1`: the IC50 turned out to be 1680 nM in assay [1] and 11500 nM in assay [2]. The EC50 in assay [3] came to 181 nM.

In the case of `O=C(CN1CCN(S(=O)(=O)c2ccccc2)CC1)c1cnc2ccccn12`, the IC50 in assay [1] came out at 1690 nM; in assay [2], 44700 nM. The EC50 in assay [3] turned out to be 141 nM.

With `COc1ccc(Br)cc1S(=O)(=O)N1CCN(CC(=O)c2cnc3ccccn23)CC1`, the IC50 was determined as 1440 nM in assay [1] and 30900 nM in assay [2]. Further, in assay [3], the EC50 came to 329 nM.

Regarding `Cc1ccc(S(=O)(=O)N2CCN(CC(=O)c3cnc4ncccn34)CC2)cc1`, the IC50 in assay [1] was 1000 nM; in assay [2] it was 39600 nM. For the same molecule, in assay [3], the EC50 came out at 105 nM.

Take `COc1ccc(S(=O)(=O)N2CCN(CC(=O)c3cnc4ccccn34)CC2)cc1`: the half-maximal inhibitory concentration (IC50) in assay [1] amounted to 1830 nM; in assay [2], 46000 nM. Further, in assay [3], the EC50 was 42 nM.

`O=C(CN1CCN(S(=O)(=O)c2ccc([N+](=O)[O-])cc2)CC1)c1cnc2ccccn12`: the values for the IC50 in assay [1] and in assay [2] were 1460 nM and 20100 nM, respectively. In addition, the EC50 in assay [3] was found to be 649 nM.
